Reference: patent US20050009840A1 (SUGEN, INC., priority 2003, published 2005)

The molecules below were run against T1, Met kinase domain (GST fusion protein) (Homo sapiens, UniProt P08581) (assay: Met transphosphorylation assay (ELISA, poly(glu-tyr) substrate)). Settings: read-out: Met IC50.
T1 construct: Purified GST fusion protein containing the Met kinase domain
Assay type: biochemical
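Also: Cell-free ELISA with plate-bound poly(Glu:Tyr 4:1) phosphorylated by GST-fused Met kinase domain plus ATP and Mn2+, phosphotyrosine detected by anti-phosphotyrosine antibody with HRP and ABTS read-out.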

T1 sequence (P08581 1078-1345 limits assumed): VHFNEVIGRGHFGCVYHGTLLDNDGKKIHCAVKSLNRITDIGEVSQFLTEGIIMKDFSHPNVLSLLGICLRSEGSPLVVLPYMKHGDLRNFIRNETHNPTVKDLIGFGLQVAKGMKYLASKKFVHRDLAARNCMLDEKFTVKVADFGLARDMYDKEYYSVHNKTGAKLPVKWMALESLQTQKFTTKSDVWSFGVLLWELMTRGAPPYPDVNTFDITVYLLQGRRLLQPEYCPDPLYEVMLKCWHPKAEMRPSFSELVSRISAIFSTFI

Q: How did the IC50 turn out when `CC(Oc1nc(-c2ccc(OCCN3CCOCC3)cc2)cnc1N)c1c(Cl)ccc(F)c1Cl` (stereo not shown) [II-71, 3-[1-(2,6-Dichloro-3-fluoro-phenyl)-ethoxy]-5-[4-(2-morpholin-4-yl-ethoxy)-phenyl]-pyrazin-2-ylamine; compound with trifluoro-acetic acid] was run?
A: Its IC50 is 300 nM.

Q: With `CC(Oc1nc(-c2cccc(C(=O)O)c2)cnc1N)c1c(Cl)ccc(F)c1Cl` (stereo not shown) [II-83, 3-{5-amino-6-[1-(2,6-dichloro-3-fluoro-phenyl)-ethoxy]-pyrazin-2-yl}benzoic acid] as the molecule, how does the IC50 read?
A: Its IC50 is 1360 nM.

Q: With `CC(Oc1nc(-c2cccc(C(=O)N3CC[C@H](N)C3)c2)cnc1N)c1c(Cl)ccc(F)c1Cl` (stereo partly drawn) [II-84, (3-{5-Amino-6-[1-(2,6-dichloro-3-fluoro-phenyl)-ethoxy]-pyrazin-2-yl}-phenyl)-[(3S)-3-amino-pyrrolidin-1-yl)-m-ethanone] as the molecule, how does the IC50 read?
A: The IC50 was 69 nM.

Q: With `CC(Oc1nc(-c2cccc(C(=O)N3CC[C@@H](N)C3)c2)cnc1N)c1c(Cl)ccc(F)c1Cl` (stereo partly drawn) [II-85, (3-{5-Amino-6-[1-(2,6-dichloro-3-fluoro-phenyl)-ethoxy]-pyrazin-2-yl}-phenyl)-[(3R)-3-amino-pyrrolidin-1-yl)-m-ethanone] as the molecule, how does the IC50 read?
A: The IC50 was 110 nM.

Q: Which IC50 does the source give for `CC(=O)N1CCN(CCNC(=O)c2cccc(-c3cnc(N)c(OC(C)c4c(Cl)ccc(F)c4Cl)n3)c2)CC1` (stereo not shown) [II-87, N-[2-(4-Acetyl-piperazin-1-yl)-ethyl]-3-{5-amino-6-[1-(2,6-dichloro-3-fluoro-phenyl)-ethoxy]-pyrazin-2-yl}-benzamide] here?
A: The IC50 was 186 nM.

Q: With `CC(Oc1nc(-c2cccc(C(=O)NCCCN3CCCC3)c2)cnc1N)c1c(Cl)ccc(F)c1Cl` (stereo not shown) [II-91, 3-{5-Amino-6-[1-(2,6-dichloro-3-fluoro-phenyl)-ethoxy]-pyrazin-2-yl}-N-(3-pyrrolidin-1-yl-propyl)-benzamide] as the molecule, how does the IC50 read?
A: The IC50 was 150 nM.

Q: For `CC(Oc1nc(-c2cccc(C(=O)N3CCC(N4CCCC4)CC3)c2)cnc1N)c1c(Cl)ccc(F)c1Cl` (stereo not shown) [II-92, (3-{5-Amino-6-[1-(2,6-dichloro-3-fluoro-phenyl)-ethoxy]-pyrazin-2-yl}-phenyl)-(4-pyrrolidin-1-yl-piperidin-1-yl)-methanone], which IC50 is on record?
A: The IC50 was 150 nM.

Q: `Nc1ncc(-c2ccc(C(=O)NCCN3CCOCC3)cc2)nc1OCc1cccc(F)c1C(F)(F)F` [II-94, 4-[5-Amino-6-(3-fluoro-2-trifluoromethyl-benzyloxy)-pyrazin-2-yl]-N-(2-morpholin-4-yl-ethyl)-benzamide] was tested. Which IC50 did it give?
A: The IC50 was 220 nM.

Q: For `CN1CCC(NC(=O)c2ccc(-c3cnc(N)c(OCc4cccc(F)c4C(F)(F)F)n3)cc2)CC1` [II-95, 4-[5-Amino-6-(3-fluoro-2-trifluoromethyl-benzyloxy)-pyrazin-2-yl]-N-(1-methyl-piperidin-4-yl)-benzamide], which IC50 is on record?
A: The IC50 was 81 nM.

Q: How did the IC50 turn out when `CC(Oc1nc(-c2cccc(C(=O)NCCCN3CCCC3)c2)cnc1N)c1c(Cl)ccc(F)c1Cl` (stereo not shown) [II-96, 3-{5-Amino-6-[1-(2,6-dichloro-3-fluoro-phenyl)-ethoxy]-pyrazin-2-yl}-N-(3-pyrrolidin-1-yl-propyl)-benzamide] was run?
A: The IC50 was 150 nM.

Q: How did the IC50 turn out when `CC(Oc1nc(-c2cccc(C(=O)NCCCN3CCCC3)c2)cnc1N)c1c(F)ccc(F)c1Cl` (stereo not shown) [II-97, 3-{5-Amino-6-[1-(2-chloro-3,6-difluoro-phenyl)-ethoxy]-pyrazin-2-yl}-N-(3-pyrrolidin-1-yl-propyl)-benzamide] was run?
A: Its IC50 is 350 nM.

Q: `CC(Oc1nc(-c2cccc(C(=O)NC3CCN(C)CC3)c2)cnc1N)c1c(F)ccc(F)c1Cl` (stereo not shown) [II-98, 3-{5-Amino-6-[1-(2-chloro-3,6-difluoro-phenyl)-ethoxy]-pyrazin-2-yl}-N-(1-methyl-piperidin-4-yl)-benzamide] was tested. Which IC50 did it give?
A: Its IC50 is 210 nM.

Q: How did the IC50 turn out when `CC(Oc1nc(-c2cccc(C(=O)NCCN3CCCC3)c2)cnc1N)c1c(F)ccc(F)c1Cl` (stereo not shown) [II-99, 3-{5-Amino-6-[1-(2-chloro-3,6-difluoro-phenyl)-ethoxy]-pyrazin-2-yl}-N-(2-pyrrolidin-1-yl-ethyl)-benzamide] was run?
A: The IC50 was 180 nM.

Q: Which IC50 does the source give for `CC(Oc1nc(-c2cccc(C(=O)NCCN3CCOCC3)c2)cnc1N)c1c(F)ccc(F)c1Cl` (stereo not shown) [II-100, 3-{5-Amino-6-[1-(2-chloro-3,6-difluoro-phenyl)-ethoxy]-pyrazin-2-yl}-N-(2-morpholin-4-yl-ethyl)-benzamide] here?
A: The IC50 was 310 nM.

Q: How did the IC50 turn out when `CC(=O)N1CCN(CCNC(=O)c2cccc(-c3cnc(N)c(OC(C)c4c(F)ccc(F)c4Cl)n3)c2)CC1` (stereo not shown) [II-101, N-[2-(4-Acetyl-piperazin-1-yl)ethyl]-3-{5-amino-6-[1-(2-chloro-3,6-difluoro-phenyl)-ethoxy]-pyrazin-2-yl}-benzamide] was run?
A: Its IC50 is 640 nM.

Q: How did the IC50 turn out when `CC(Oc1nc(-c2ccc(C(=O)NCCCN3CCCC3)cc2)cnc1N)c1c(F)ccc(F)c1Cl` (stereo not shown) [II-109, 4-{5-Amino-6-[1-(2-chloro-3,6-difluoro-phenyl)-ethoxy]-pyrazin-2-yl}-N-(3-pyrrolidin-1-yl-propyl)-benzamide] was run?
A: The IC50 was 100 nM.

Q: How did the IC50 turn out when `CC(Oc1nc(-c2ccc(C(=O)N3CCN(C)CC3)cc2)cnc1N)c1c(F)ccc(F)c1Cl` (stereo not shown) [II-110, (4-{5-Amino-6-[1-(2-chloro-3,6-difluoro-phenyl)-ethoxy]-pyrazin-2-yl}-phenyl)-(4-methyl-piperazin-1-yl)-methanone] was run?
A: Its IC50 is 160 nM.

Q: For `CC(Oc1nc(-c2ccc(C(=O)N3CCC(N4CCCC4)CC3)cc2)cnc1N)c1c(F)ccc(F)c1Cl` (stereo not shown) [II-111, (4-{5-Amino-6-[1-(2-chloro-3,6-difluoro-phenyl)-ethoxy]-pyrazin-2-yl}-phenyl)-(4-pyrrolidin-1-yl-piperidin-1-yl)-methanone], which IC50 is on record?
A: Its IC50 is 170 nM.

Q: `CC(Oc1nc(-c2ccc(C(=O)N3C[C@@H](C)N[C@@H](C)C3)cc2)cnc1N)c1c(F)ccc(F)c1Cl` (stereo partly shown) [II-112] was tested. Which IC50 did it give?
A: Its IC50 is 190 nM.

Q: How did the IC50 turn out when `CC(Oc1nc(-c2ccc(C(=O)N3CCC[C@H]3CN3CCCC3)cc2)cnc1N)c1c(F)ccc(F)c1Cl` (stereo partly drawn) [II-113, (4-{5-Amino-6-[1-(2-chloro-3,6-difluoro-phenyl)-ethoxy]-pyrazin-2-yl}-phenyl)-((S)-2-pyrrolidin-1-ylmethyl-pyrrolidin-1-yl)-methanone] was run?
A: Its IC50 is 180 nM.

Q: How did the IC50 turn out when `CC(Oc1nc(-c2ccc(C(=O)N3CCC[C@@H]3CN3CCCC3)cc2)cnc1N)c1c(F)ccc(F)c1Cl` (stereo partly drawn) [II-114, (4-{5-Amino-6-[1-(2-chloro-3,6-difluoro-phenyl)-ethoxy]-pyrazin-2-yl}-phenyl)-((R)-2-pyrrolidin-1-ylmethyl-pyrrolidin-1-yl)-methanone] was run?
A: Its IC50 is 130 nM.

Q: How did the IC50 turn out when `CC(Oc1nc(-c2ccc(C(=O)N3CC[C@@H](N)C3)cc2)cnc1N)c1c(F)ccc(F)c1Cl` (stereo partly drawn) [II-115, (4-{5-Amino-6-[1-(2-chloro-3,6-difluoro-phenyl)-ethoxy]-pyrazin-2-yl}-phenyl)-((R)-3-amino-pyrrolidin-1-yl)-methanone] was run?
A: Its IC50 is 78 nM.

Q: How did the IC50 turn out when `CC(Oc1nc(-c2ccc(C(=O)NC3CCN(C)CC3)cc2)cnc1N)c1c(F)ccc(F)c1Cl` (stereo not shown) [II-116, 4-{5-Amino-6-[1-(2-chloro-3,6-difluoro-phenyl)-ethoxy]-pyrazin-2-yl}-N-(1-methyl-piperidin-4-yl)-benzamide] was run?
A: Its IC50 is 190 nM.

Q: For `CC(Oc1nc(-c2ccc(C(=O)NCCN3CCCC3)cc2)cnc1N)c1c(F)ccc(F)c1Cl` (stereo not shown) [II-117, 4-{5-Amino-6-[1-(2-chloro-3,6-difluoro-phenyl)-ethoxy]-pyrazin-2-yl}-N-(2-pyrrolidin-1-yl-ethyl)-benzamide], which IC50 is on record?
A: The IC50 was 110 nM.

Q: For `CC(Oc1nc(-c2ccc(C(=O)NCCN3CCOCC3)cc2)cnc1N)c1c(F)ccc(F)c1Cl` (stereo not shown) [II-118, 4-{5-Amino-6-[1-(2-chloro-3,6-difluoro-phenyl)-ethoxy]-pyrazin-2-yl}-N-(2-morpholin-4-yl-ethyl)-benzamide], which IC50 is on record?
A: The IC50 was 260 nM.

Q: With `CC(=O)N1CCN(CCNC(=O)c2ccc(-c3cnc(N)c(OC(C)c4c(F)ccc(F)c4Cl)n3)cc2)CC1` (stereo not shown) [II-119, N-[2-(4-Acetyl-piperazin-1-yl)-ethyl]-4-{5-amino-6-[1-(2-chloro-3,6-difluoro-phenyl)-ethoxy]-pyrazin-2-yl}-benzamide] as the molecule, how does the IC50 read?
A: Its IC50 is 480 nM.

Q: Which IC50 does the source give for `CC(Oc1nc(-c2ccc(NS(=O)(=O)CCN3CCN(C(=O)CO)CC3)cc2)cnc1N)c1c(F)ccc(F)c1Cl` (stereo not shown) [II-120, 2-[4-(2-Hydroxy-acetyl)-piperazin-1-yl]-ethanesulfonic acid (4-{5-amino-6-[1-(2-chloro-3,6-difluoro-phenyl)-ethoxy]-pyrazin-2-yl}-phenyl)-amide] here?
A: The IC50 was 190 nM.

Q: For `Nc1ncc(-c2cccc(C(=O)N3CCC(N4CCCC4)CC3)c2)nc1OCc1cccc(F)c1C(F)(F)F` [II-122, {3-[5-Amino-6-(3-fluoro-2-trifluoromethyl-benzyloxy):pyrazin-2-yl]-phenyl)(4-pyrrolidin-1-yl-piperidin-1-yl)-methanone], which IC50 is on record?
A: The IC50 was 190 nM.

Q: `CN1CCN(C(=O)c2cccc(-c3cnc(N)c(OCc4cccc(F)c4C(F)(F)F)n3)c2)CC1` [II-124, {3-[5-Amino-6-(3-fluoro-2-trifluoromethyl-benzylloxy)-pyrazin-2-yl]-phenyl}-(4-methyl-piperazin-1-yl)-methanone] was tested. Which IC50 did it give?
A: Its IC50 is 230 nM.

Q: For `Nc1ncc(-c2cccc(C(=O)NCCCN3CCCC3)c2)nc1OCc1cccc(F)c1C(F)(F)F` [II-125, 3-[5-Amino-6-(3-fluoro-2-trifluoromethyl-benzyloxy)-pyrazin-2-yl]-N-(3-pyrrolidin-1-yl-propyl)-benzamide], which IC50 is on record?
A: The IC50 was 220 nM.

Q: Which IC50 does the source give for `CC(=O)N1CCN(CCNC(=O)c2cccc(-c3cnc(N)c(OCc4cccc(F)c4C(F)(F)F)n3)c2)CC1` [II-126, N-[2-(4-Acetyl-piperazin-1-yl)-ethyl]-3-[5-amino-6-(3-fluoro-2-trifluoromethyl-benzyloxy)-pyrazin-2-yl]-benzamide] here?
A: Its IC50 is 650 nM.

Q: With `Nc1ncc(-c2ccc(C(=O)N3CCC(N4CCCC4)CC3)cc2)nc1OCc1cccc(F)c1C(F)(F)F` [II-127, {4-[5-Amino-6-(3-fluoro-2-trifluoromethyl-benzyloxy)-pyrazin-2-yl]-phenyl}-(4-pyrrolidin-1-yl-piperidin-1-yl)-methanone] as the molecule, how does the IC50 read?
A: The IC50 was 47 nM.

Q: How did the IC50 turn out when `CN1CCN(C(=O)c2ccc(-c3cnc(N)c(OCc4cccc(F)c4C(F)(F)F)n3)cc2)CC1` [II-128, {4-[5-Amino-6-(3-fluoro-2-trifluoromethyl-benzyloxy)-pyrazin-2-yl]-phenyl}-(4-methyl-piperazin-1-yl)-methanone] was run?
A: The IC50 was 150 nM.

Q: Which IC50 does the source give for `Nc1ncc(-c2ccc(C(=O)N3CCC[C@H]3CN3CCCC3)cc2)nc1OCc1cccc(F)c1C(F)(F)F` [II-129, {4-[5-Amino-6-(3-fluoro-2-trifluoromethyl-benzyloxy)-pyrazin-2-yl]-phenyl}-((S)-2-pyrrolidin-1-ylmethyl-pyrrolidin-1-yl)-methanone] here?
A: Its IC50 is 52 nM.
